# Measurements taken from ChEMBL document CHEMBL3885881, “DrugMatrix”.
# Organism: Rattus norvegicus
# Assay: DrugMatrix - Regimen: Daily Repeat
# Format: toxicity, organism-based, Sprague-Dawley
# Parameters: regimen Daily Repeat, gender Male, age 6-8 weeks
# Conditions: in vivo, po, 0 mg/kg, route oral GAVAGE, dose level Control, […]; for ABSOLUTE BASOPHIL / ABSOLUTE EOSINOPHIL / ABSOLUTE LYMPHOCYTE / ABSOLUTE MONOCYTE / BASOPHIL / EOSINOPHIL / ERYTHROCYTE COUNT / HEMATOCRIT / HEMOGLOBIN / LEUKOCYTE COUNT / LYMPHOCYTE / MEAN CORPUSCULAR HEMOGLOBIN / MEAN CORPUSCULAR HEMOGLOBIN CONCENTRATION / MEAN CORPUSCULAR VOLUME / MONOCYTE / NEUTROPHIL / PLATELET COUNT: tissue Blood
# [1] = 72 h, tissue Plasma, time 3 day
# [2] = 120 h, tissue Plasma, time 5 day
smiles,measurement,setting,value
"Clc1ccc(Cl)cc1 [1,4-DICHLOROBENZENE]",ABSOLUTE BASOPHIL,"72 h, time 3 day",50 cells/µL
same,ABSOLUTE EOSINOPHIL,"72 h, time 3 day",43.3 cells/µL
same,ABSOLUTE LYMPHOCYTE,"72 h, time 3 day",9670 cells/µL
same,ABSOLUTE MONOCYTE,"72 h, time 3 day",210 cells/µL
same,BASOPHIL,"72 h, time 3 day",0.4%
same,EOSINOPHIL,"72 h, time 3 day",0.37%
same,ERYTHROCYTE COUNT,"72 h, time 3 day",6.82 x10E6/uL
same,HEMATOCRIT,"72 h, time 3 day",46.77%
same,HEMOGLOBIN,"72 h, time 3 day",14.53 G/DL
same,LEUKOCYTE COUNT,"72 h, time 3 day",11.77 x10E3/uL
same,LYMPHOCYTE,"72 h, time 3 day",82.1%
same,MEAN CORPUSCULAR HEMOGLOBIN,"72 h, time 3 day",21.33 pg
same,MEAN CORPUSCULAR HEMOGLOBIN CONCENTRATION,"72 h, time 3 day",31.13 G/DL
same,MEAN CORPUSCULAR VOLUME,"72 h, time 3 day",68.57 fL
same,MONOCYTE,"72 h, time 3 day",1.8%
same,NEUTROPHIL,"72 h, time 3 day",14.83%
same,PLATELET COUNT,"72 h, time 3 day",1303.33 x10E3/uL
same,ALANINE AMINOTRANSFERASE,[1],46.67 u/L
same,ALBUMIN,[1],4.17 G/DL
same,ALKALINE PHOSPHATASE,[1],530 u/L
same,ASPARTATE AMINOTRANSFERASE,[1],81.33 u/L
same,BLOOD UREA NITROGEN,[1],17.67 mg/dL
same,CARBON DIOXIDE,[1],41.67 mmol/L
same,CHLORIDE,[1],102 MEQ/L
same,CHOLESTEROL,[1],70.33 mg/dL
same,CREATINE PHOSPHOKINASE,[1],372.67 u/L
same,CREATININE,[1],0.5 mg/dL
same,GLUCOSE,[1],184 mg/dL
same,LIPASE,[1],13.33 u/L
same,PHOSPHORUS,[1],10.2 mg/dL
same,POTASSIUM,[1],6.13 MEQ/L
same,SODIUM,[1],145 MEQ/L
same,TOTAL BILIRUBIN,[1],0.43 mg/dL
same,TOTAL PROTEIN,[1],6.7 G/DL
same,URIC ACID,[1],0.83 mg/dL
same,ABSOLUTE BASOPHIL,"120 h, time 5 day",33.3 cells/µL
same,ABSOLUTE EOSINOPHIL,"120 h, time 5 day",56.7 cells/µL
same,ABSOLUTE LYMPHOCYTE,"120 h, time 5 day",9220 cells/µL
same,ABSOLUTE MONOCYTE,"120 h, time 5 day",230 cells/µL
same,BASOPHIL,"120 h, time 5 day",0.3%
same,EOSINOPHIL,"120 h, time 5 day",0.5%
same,ERYTHROCYTE COUNT,"120 h, time 5 day",6.62 x10E6/uL
same,HEMATOCRIT,"120 h, time 5 day",46.43%
same,HEMOGLOBIN,"120 h, time 5 day",14.3 G/DL
same,LEUKOCYTE COUNT,"120 h, time 5 day",10.96 x10E3/uL
same,LYMPHOCYTE,"120 h, time 5 day",83.83%
same,MEAN CORPUSCULAR HEMOGLOBIN,"120 h, time 5 day",21.57 pg
same,MEAN CORPUSCULAR HEMOGLOBIN CONCENTRATION,"120 h, time 5 day",30.77 G/DL
same,MEAN CORPUSCULAR VOLUME,"120 h, time 5 day",70.13 fL
same,MONOCYTE,"120 h, time 5 day",2.1%
same,NEUTROPHIL,"120 h, time 5 day",12.53%
same,PLATELET COUNT,"120 h, time 5 day",1056.67 x10E3/uL
same,ALANINE AMINOTRANSFERASE,[2],41.33 u/L
same,ALBUMIN,[2],4.07 G/DL
same,ALKALINE PHOSPHATASE,[2],603.33 u/L
same,ASPARTATE AMINOTRANSFERASE,[2],80 u/L
same,BLOOD UREA NITROGEN,[2],14.67 mg/dL
same,CARBON DIOXIDE,[2],43 mmol/L
same,CHLORIDE,[2],104 MEQ/L
same,CHOLESTEROL,[2],88.33 mg/dL
same,CREATINE PHOSPHOKINASE,[2],391.67 u/L
same,CREATININE,[2],0.47 mg/dL
same,GLUCOSE,[2],156 mg/dL
same,LIPASE,[2],10.67 u/L
same,PHOSPHORUS,[2],9.03 mg/dL
same,POTASSIUM,[2],6.1 MEQ/L
same,SODIUM,[2],145.67 MEQ/L
same,TOTAL BILIRUBIN,[2],0.37 mg/dL
same,TOTAL PROTEIN,[2],6.53 G/DL
same,URIC ACID,[2],0.5 mg/dL
same,ABSOLUTE BASOPHIL,time 14 day,73.3 cells/µL
same,ABSOLUTE EOSINOPHIL,time 14 day,60 cells/µL
same,ABSOLUTE LYMPHOCYTE,time 14 day,12200 cells/µL
same,ABSOLUTE MONOCYTE,time 14 day,250 cells/µL
same,BASOPHIL,time 14 day,0.5%
same,EOSINOPHIL,time 14 day,0.37%
same,ERYTHROCYTE COUNT,time 14 day,7.33 x10E6/uL
same,HEMATOCRIT,time 14 day,44.3%
same,HEMOGLOBIN,time 14 day,14.77 G/DL
same,LEUKOCYTE COUNT,time 14 day,14.86 x10E3/uL
same,LYMPHOCYTE,time 14 day,81.87%
same,MEAN CORPUSCULAR HEMOGLOBIN,time 14 day,20.2 pg
same,MEAN CORPUSCULAR HEMOGLOBIN CONCENTRATION,time 14 day,33.33 G/DL
same,MEAN CORPUSCULAR VOLUME,time 14 day,60.57 fL
same,MONOCYTE,time 14 day,1.63%
same,NEUTROPHIL,time 14 day,14.93%
same,PLATELET COUNT,time 14 day,1101.67 x10E3/uL
same,ALANINE AMINOTRANSFERASE,"tissue Plasma, time 14 day",31.67 u/L
same,ALBUMIN,"tissue Plasma, time 14 day",3.83 G/DL
same,ALKALINE PHOSPHATASE,"tissue Plasma, time 14 day",430.67 u/L
same,ASPARTATE AMINOTRANSFERASE,"tissue Plasma, time 14 day",87 u/L
same,BLOOD UREA NITROGEN,"tissue Plasma, time 14 day",14.33 mg/dL
same,CARBON DIOXIDE,"tissue Plasma, time 14 day",39 mmol/L
same,CHLORIDE,"tissue Plasma, time 14 day",104 MEQ/L
same,CHOLESTEROL,"tissue Plasma, time 14 day",66 mg/dL
same,CREATINE PHOSPHOKINASE,"tissue Plasma, time 14 day",441.67 u/L
same,CREATININE,"tissue Plasma, time 14 day",0.7 mg/dL
same,GLUCOSE,"tissue Plasma, time 14 day",125.67 mg/dL
same,LACTATE DEHYDROGENASE,"tissue Plasma, time 14 day",397.67 u/L
same,LIPASE,"tissue Plasma, time 14 day",12.33 u/L
same,PHOSPHORUS,"tissue Plasma, time 14 day",9.87 mg/dL
same,POTASSIUM,"tissue Plasma, time 14 day",5.93 MEQ/L
same,SODIUM,"tissue Plasma, time 14 day",145 MEQ/L
same,TOTAL BILIRUBIN,"tissue Plasma, time 14 day",0.37 mg/dL
same,TOTAL PROTEIN,"tissue Plasma, time 14 day",6.27 G/DL
same,URIC ACID,"tissue Plasma, time 14 day",0.67 mg/dL
